Active and inactive are the calls of the source. The rule behind the calls is not given here.
Columns and labels:
[1] = system: K562; assay: Antiproliferative activity against human K562 cells assessed as growth inhibition measured after 72 hrs by MTT assay; settings: K562, 72 h
[2] = system: MCF7; assay: Antiproliferative activity against human MCF7 cells assessed as growth inhibition measured after 72 hrs by MTT assay; settings: MCF7, 72 h
[3] = Antiproliferative activity against human K562/4 cells assessed as growth inhibition measured after 72 hrs by MTT assay; settings: K562/4, 72 h
[4] = molecular target: Carbonic anhydrase 9 (Homo sapiens, UniProt Q16790); assay: Inhibition of human CA9 preincubated for 15 mins by phenol red dye based stopped flow CO2 hydration assay
[5] = molecular target: Carbonic anhydrase 12 (Homo sapiens, UniProt O43570); assay: Inhibition of human CA12 preincubated for 15 mins by phenol red based stopped flow CO2 hydration assay
Carbonic anhydrase 12, sequence (O43570 whole entry): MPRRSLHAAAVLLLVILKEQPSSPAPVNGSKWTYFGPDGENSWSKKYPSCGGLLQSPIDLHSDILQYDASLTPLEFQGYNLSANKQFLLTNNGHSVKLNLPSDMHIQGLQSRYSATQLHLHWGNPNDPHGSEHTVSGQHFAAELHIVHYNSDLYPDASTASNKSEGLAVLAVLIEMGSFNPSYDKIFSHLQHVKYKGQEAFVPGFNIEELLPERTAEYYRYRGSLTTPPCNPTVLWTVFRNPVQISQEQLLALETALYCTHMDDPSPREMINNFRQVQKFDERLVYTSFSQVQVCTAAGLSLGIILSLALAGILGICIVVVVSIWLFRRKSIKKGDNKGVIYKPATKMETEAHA

[6] = system: T47D; assay: Antiproliferative activity against human T47D cells assessed as growth inhibition under normoxia conditions measured after 72 hrs by MTT assay
[7] = system: MCF7; assay: Antiproliferative activity against human MCF7 cells assessed as growth inhibition under hypoxia conditions measured after 72 hrs by MTT assay; settings: MCF7, 72 h
[8] = system: MDA-MB-231; assay: Antiproliferative activity against human MDA-MB-231 cells assessed as growth inhibition under normoxia conditions measured after 72 hrs by MTT assay; settings: MDA-MB-231, 72 h
[9] = system: MDA-MB-231; assay: Antiproliferative activity against human MDA-MB-231 cells assessed as growth inhibition under hypoxia conditions measured after 72 hrs by MTT assay; settings: MDA-MB-231, 72 h
[10] = system: HCT-116; assay: cells; settings: Homo sapiens, HCT-116, 72 h
Description: Antiproliferative activity against human HCT-116 assessed as growth inhibition measured after 72 hrs by MTT assay

[11] = system: HCT-116; assay: Antiproliferative activity against human HCT-116p53KO subline assessed as growth inhibition measured after 72 hrs by MTT assay; settings: HCT-116, 72 h
[12] = system: T47D; assay: Antiproliferative activity against human T47D cells assessed as growth inhibition under hypoxia conditions measured after 72 hrs by MTT assay
[13] = Cytotoxicity against human MCF-10A assessed as cell viability under hypoxia conditions measured after 72 hrs by MTT assay; type: toxicity, cell-based; settings: MCF-10A cells
[14] = Cytotoxicity against human MCF-10A assessed as cell viability under normoxia conditions measured after 72 hrs by MTT assay; type: toxicity, cell-based; settings: MCF-10A cells
[15] = system: MCF7; assay: Induction of apoptosis in human MCF7 cells assessed as decrease in ERalpha protein expression upto 5 uM measured after 48 hrs by immunoblotting analysis; type: functional, cell-based; settings: dose microM <=5, time 48.0 hrs
[16] = system: MCF7; assay: Induction of apoptosis in human MCF7 cells assessed as […] in BAD protein expression upto 5 uM measured after 48 hrs by immunoblotting analysis; type: functional, cell-based; settings: dose microM <=5, time 48.0 hrs
[17] = system: MCF7; assay: Induction of apoptosis in human MCF7 cells assessed as PARP cleavage upto 5 uM measured after 48 hrs by immunoblotting analysis; type: functional, cell-based; settings: dose microM <=5, time 48.0 hrs
[18] = system: MCF7; assay: Induction of apoptosis in human MCF7 cells assessed as NFkappaB activity upto 5 uM measured after 48 hrs by immunoblotting analysis; type: functional, cell-based; settings: dose microM <=5, time 48.0 hrs
[19] = system: MCF7; assay: Induction of apoptosis in human MCF7 cells assessed as decrease in Bcl2 expression upto 5 uM measured after 48 hrs by immunoblotting analysis; type: functional, cell-based; settings: dose microM <=5, time 48.0 hrs

| Compound | IC50 [1] | IC50 [2] | Ki [4] | Ki [5] | IC50 [6] | IC50 [7] | IC50 [8] | IC50 [9] | IC50 [10] | IC50 [11] | IC50 [12] | IC50 [3] | IC50 at 72 h [13] | IC50 at 72 h [14] | Activity [15] | Activity [16] | Activity [17] | Activity [18] | Activity [19] |
| --- | --- | --- | --- | --- | --- | --- | --- | --- | --- | --- | --- | --- | --- | --- | --- | --- | --- | --- | --- |
| NS(=O)(=O)c1ccc2c(c1)C(=O)C(=O)N2Cc1c(F)c(F)c(F)c(F)c1F | 8 µM | 10.2 µM | 0.195 µM | – | – | – | – | – | – | – | – | > 50 µM | – | – | – | – | – | – | – |
| NS(=O)(=O)c1ccc2c(c1)C(=O)C(=O)N2 | > 50 µM | > 50 µM | 1.46 µM | – | – | – | – | – | – | – | – | > 50 µM | – | – | – | – | – | – | – |
| NS(=O)(=O)c1ccc2c(c1)C(=O)C(=O)N2Cc1ccc(Cl)cc1Cl | 8.8 µM | 7.8 µM | 0.163 µM | – | 12 µM | 5.6 µM | 7 µM | 8.4 µM | 17.5 µM | 20 µM | 21.8 µM | 18 µM | – | – | – | – | – | – | – |
| NS(=O)(=O)c1ccc2c(c1)CCC2NC(=O)c1c(F)c(F)c(F)c(F)c1F (stereo not drawn) | 12.5 µM | 9.2 µM | – | – | > 50 µM | 13.1 µM | 26.6 µM | 25.7 µM | 18 µM | 45 µM | > 50 µM | 18 µM | > 50 µM | > 50 µM | – | – | – | – | – |
| NS(=O)(=O)c1ccc2c(c1)C(=O)C(=O)N2Cc1ccc([N+](=O)[O-])cc1 | > 50 µM | > 50 µM | 2.04 µM | – | – | – | – | – | – | – | – | > 50 µM | – | – | – | – | – | – | – |
| COc1cccc2c1C(=O)c1c(O)c3c(c(O)c1C2=O)C[C@@](O)(C(=O)CO)C[C@@H]3O[C@H]1C[C@H](N)[C@H](O)[C@H](C)O1 [DOXORUBICIN] | – | 0.31 µM | – | – | 0.16 µM | 0.37 µM | 0.33 µM | 0.25 µM | 0.3 µM | 0.8 µM | 0.18 µM | – | 0.051 µM | 0.047 µM | – | – | – | – | – |
| NS(=O)(=O)c1ccc2c(c1)C(=O)C(=O)N2Cc1ccc(SC(F)(F)F)cc1 | 4.5 µM | 2.6 µM | 1.77 µM | > 10 µM | 6.3 µM | 3.2 µM | 6.9 µM | 10.8 µM | 14.5 µM | 15 µM | 20.3 µM | 6.5 µM | 8.6 µM | 6.4 µM | Dose-Dependent Effect | inactive | Active | Active | Active |
| COc1ccc(CN2C(=O)C(=O)c3cc(S(N)(=O)=O)ccc32)cc1 | 9 µM | 5.1 µM | 1.03 µM | – | 20.7 µM | 4.6 µM | 28.4 µM | 40.8 µM | 27 µM | 30 µM | > 50 µM | 43 µM | 3.2 µM | 4 µM | – | – | – | – | – |
| NS(=O)(=O)c1ccc2c(c1)C(=O)C(=O)N2Cc1ccccc1 | 18 µM | 20.1 µM | 1.53 µM | – | – | – | – | – | – | – | – | > 50 µM | – | – | – | – | – | – | – |
| NS(=O)(=O)c1ccc2c(c1)C(=O)C(=O)N2CCc1ccccc1 | 17.2 µM | 31.8 µM | 1.81 µM | – | – | – | – | – | – | – | – | 36 µM | – | – | – | – | – | – | – |
| NS(=O)(=O)c1ccc2c(c1)C(=O)C(=O)N2Cc1cc(C(F)(F)F)ccc1F | 9 µM | 12 µM | 0.211 µM | > 10 µM | – | – | – | – | – | – | – | 19.8 µM | – | – | – | – | – | – | – |
| NS(=O)(=O)c1ccc2c(c1)C(=O)C(=O)N2Cc1ccc(C(F)(F)F)cc1 | 16 µM | 8.2 µM | 0.811 µM | – | 22.6 µM | 5.5 µM | 27.1 µM | 16.3 µM | 30 µM | 34 µM | 32.6 µM | 50 µM | – | – | – | – | – | – | – |
| O=C1C(=O)N(Cc2ccc(Cl)c(Cl)c2)c2ccccc21 | 20 µM | > 50 µM | – | – | – | > 50 µM | > 50 µM | > 50 µM | 38 µM | > 50 µM | – | 48 µM | – | – | inactive | Active | Active | inactive | Active |

Continued, in another order:

| IC50 [1] | IC50 [2] | Ki [4] | Ki [5] | IC50 [6] | IC50 [7] | IC50 [8] | IC50 [9] | IC50 [10] | IC50 [11] | IC50 [12] | Compound | IC50 [3] | IC50 at 72 h [13] | IC50 at 72 h [14] | Activity [15] | Activity [16] | Activity [17] | Activity [18] | Activity [19] |
| --- | --- | --- | --- | --- | --- | --- | --- | --- | --- | --- | --- | --- | --- | --- | --- | --- | --- | --- | --- |
| 15.5 µM | 26.8 µM | 2.53 µM | > 10 µM | – | – | – | – | – | – | – | NS(=O)(=O)c1ccc2c(c1)C(=O)C(=O)N2Cc1cccc(F)c1 | 50 µM | – | – | – | – | – | – | – |
| 17 µM | 22.7 µM | 1.03 µM | – | – | – | – | – | – | – | – | NS(=O)(=O)c1ccc2c(c1)C(=O)C(=O)N2Cc1c(F)cccc1F | 40 µM | – | – | – | – | – | – | – |
| 18 µM | 8.7 µM | 1.11 µM | – | – | – | – | – | – | – | – | NS(=O)(=O)c1ccc2c(c1)C(=O)C(=O)N2Cc1ccccc1F | 20 µM | – | – | – | – | – | – | – |
| > 50 µM | > 50 µM | 1.68 µM | – | – | – | – | – | – | – | – | NS(=O)(=O)c1ccc2c(c1)C(=O)C(=O)N2Cc1ccncc1 | > 50 µM | – | – | – | – | – | – | – |
| 11 µM | 13.3 µM | 0.292 µM | – | – | – | – | – | – | – | – | NS(=O)(=O)c1ccc2c(c1)C(=O)C(=O)N2Cc1ccc(F)cc1Cl | 32 µM | – | – | – | – | – | – | – |
| 35 µM | 26.5 µM | 1.32 µM | – | – | – | – | – | – | – | – | NS(=O)(=O)c1ccc2c(c1)C(=O)C(=O)N2Cc1cc(F)cc(F)c1 | 37 µM | – | – | – | – | – | – | – |
| 9.8 µM | 8.4 µM | 0.244 µM | > 10 µM | 6.3 µM | 5.9 µM | 14.2 µM | 17.6 µM | 17.7 µM | 30 µM | > 50 µM | NS(=O)(=O)c1ccc2c(c1)C(=O)C(=O)N2Cc1cccc(C(F)(F)F)c1 | 19.8 µM | – | – | – | – | – | – | – |
| 36 µM | 17.3 µM | 0.24 µM | – | – | – | – | – | – | – | – | NS(=O)(=O)c1ccc2c(c1)C(=O)C(=O)N2Cc1ccc(F)cc1 | > 50 µM | – | – | – | – | – | – | – |
| 14 µM | 6 µM | 0.26 µM | – | 18.4 µM | 4.9 µM | 22 µM | 19.1 µM | 23 µM | 30 µM | 42.5 µM | NS(=O)(=O)c1ccc2c(c1)C(=O)C(=O)N2Cc1ccc(Cl)cc1 | 50 µM | 6.2 µM | 6.9 µM | – | – | – | – | – |
| 8 µM | 4.4 µM | 0.276 µM | – | 9.4 µM | 3.9 µM | 7.4 µM | 9.4 µM | 17 µM | 15 µM | 11.1 µM | Cc1ccc(CN2C(=O)C(=O)c3cc(S(N)(=O)=O)ccc32)cc1C | 17 µM | 6 µM | 6.2 µM | – | – | – | – | – |
| 14.5 µM | 12.8 µM | 0.204 µM | – | – | – | – | – | – | – | – | NS(=O)(=O)c1ccc2c(c1)C(=O)C(=O)N2Cc1c(F)cccc1Cl | 18 µM | – | – | – | – | – | – | – |
| 17 µM | 6.1 µM | 1.46 µM | – | 17.1 µM | 5.9 µM | 21.8 µM | 18.5 µM | 32 µM | 31 µM | > 50 µM | NS(=O)(=O)c1ccc2c(c1)C(=O)C(=O)N2Cc1ccc(Cl)c(Cl)c1 | > 50 µM | 7.3 µM | 6.6 µM | – | – | – | – | – |

Reference: ChEMBL document CHEMBL5046238, “Synthesis, biological evaluation, and in silico studies of potential activators of apoptosis and carbonic anhydrase inhibitors on isatin-5-sulfonamide scaffold” (Eur J Med Chem, 2022)
